Here are results for 2 substances from patent US6958342B2, “Polymorphs of N-methyl-N-(3-{3-[2-thienylcarbonyl]-pyrazol-[1,5-α]-pyrimidin-7-yl}phenyl)acetamide and compositions and methods related thereto” (Neurocrine Biosciences, Inc., priority 1999, dated 2005).

Series [1] can be described thus: Approximate solubility of Form I and Form II in various solvents. Type of series: physicochemical. An excerpt: In addition, the lower melting point polymorph, Form II, also has significant advantages over the polymorphic mixture of Compound 1 as prepared according to known techniques. […] Form II is generally more soluble in polar and protic solvents than is Form I. Enhanced solubility of a compound will generally increase the bioavailability of that compound. When absorption of a drug is dissolution rate limited, use of the more soluble and faster dissolving form improves the rate and extent of bioavailability.

The nature of series [2]: Physical (polymorphic) stability of the solid form. The class given is physicochemical. Particulars: stability toward conversion to a different polymorphic form; compared with the polymorphic mixture of Compound 1. From the text: The polymorph Form I is considered a heat stable form of Compound 1. By “heat stable” or “physically stable” is meant that the Form I is stable toward conversion to the polymorph Form II; although, it may be labile toward degradation to other compounds.
As the higher melting point polymorph, Form I has significant advantages over the polymorphic mixture of Compound 1 prepared according to known techniques. […] This, in turn, enhances the milling and compaction properties of the drug substance.

Usually Solubility stands for the concentration that dissolves in the medium under given conditions. A higher Solubility goes with a readily soluble substance. Consider “N-methyl-N-(3-{3-[2-thienylcarbonyl]-pyrazol-[1,5-α]-pyrimidin-7-yl}phenyl)acetamide [Form II]”, for which the Solubility in series [1] (Acetone) turned out to be 6873 µg/mL; in series [1] (Acetonitrile), 8928 µg/mL; in series [1] (De-ionized water), 18.8 µg/mL; in series [1] (Diethyl ether) it was 51 µg/mL; in series [1] (Ethanol, absolute (100%)), 1722 µg/mL; in series [1] (Ethyl acetate) it was 2160 µg/mL. For the same substance, the Solubility in series [1] (Hexane) amounted to 50 µg/mL; in series [1] (Isopropanol) it was 457 µg/mL; in series [1] (Methanol), 1915 µg/mL; in series [1] (Polyethylene Glycol 400, NF) it was 10100 µg/mL; in series [1] (Tetrahydrofuran) it was 14740 µg/mL; in series [1] (Toluene), 645 µg/mL. The “Water solubility, in words” value in series [1] (compared with Form I) is “superior water solubility over Form I”.
Take “N-methyl-N-(3-{3-[2-thienylcarbonyl]-pyrazol-[1,5-α]-pyrimidin-7-yl}phenyl)acetamide [Form I]”: in series [2], the “Physical stability, in words” value was “superior physical stability”. In addition, the Solubility was found to be 4842 µg/mL in series [1] (Acetone); 6246 µg/mL in series [1] (Acetonitrile); 8.3 µg/mL in series [1] (De-ionized water); 80 µg/mL in series [1] (Diethyl ether); 1426 µg/mL in series [1] (Ethanol, absolute (100%)); 1600 µg/mL in series [1] (Ethyl acetate). The Solubility in series [1] (Hexane) was 41 µg/mL; in series [1] (Isopropanol), 441 µg/mL; in series [1] (Methanol), 1740 µg/mL; in series [1] (Polyethylene Glycol 400, NF) it was 3259 µg/mL; in series [1] (Tetrahydrofuran), 9964 µg/mL; in series [1] (Toluene) it was 997 µg/mL.
